The source of these data is patent US8802405B2, “Ethanologenic Clostridium species, Clostridium coskatii” (Coskata, Inc., priority 2010, dated 2014).

Experiment in all cases: Growth on various substrates (carbon substrate utilization)
Assay [1] deals with C. autoethangenum. It counts as cell-based, Clostridium autoethanogenum. To be noted: for Growth on substrate: C. autoethangenum, 1 g/L carbon source, N2:CO2 (80%:20%), OD600. As to the method:
(§1) Growth was measured spectrophotometrically at 600 nm (Spectronic 20D; Milton Roy). Carbon substrate utilization was based upon growth after consecutive transfers in media containing 1 g/L of each carbon source. For carbon substrates, screening was performed under an atmosphere of N2: CO2 (80%:20%). A positive growth response was recorded for an OD600 exceeding 0.2 AU. For citrate, additional ^13C-labeled isotope experiments were conducted to determine the nature of products by analysis of final 0.2 μm-filtered product samples by carbon NMR using a Bruker UltraShield Avance 400 MHz nuclear magnetic resonance spectrometer.

For assay [2], the system named is C. ragsdalei. Type of assay: cell-based, Clostridium ragsdalei. To be noted: for Growth on substrate: 1 g/L carbon source, N2:CO2 (80%:20%), OD600. As to the method: as §1
Assay [3] has as its system C. ljungdahlii PETC. Type of assay: cell-based, Clostridium ljungdahlii PETC. To be noted: for Growth on substrate: 1 g/L carbon source, N2:CO2 (80%:20%), OD600. On the procedure:
as §1

In assay [4] the test system is C. coskatii PS02. It counts as cell-based, Clostridium coskatii (PS02). To be noted: for Growth on substrate: C. coskatii PS02, 1 g/L carbon source, N2:CO2 (80%:20%), OD600; for Chemoorganotrophic growth on substrate (in words): Clostridium coskatii (PS02). As to the method: as §1

Regarding `O=C(CO)[C@@H](O)[C@H](O)[C@H](O)CO` [Fructose], the Growth on substrate result in assay [1], in assay [2], in assay [3] and in assay [4] was “+ (A positive growth response was recorded for an OD600 exceeding 0.2 AU)” each time. In addition, the “Chemoorganotrophic growth on substrate (in words)” value (“Chemoorganotrophic growth” below) in assay [4] is reported as “growth was observed”.

As for `O=C(O)CC(=O)C(=O)O` [Oxaloacetic acid], the Growth on substrate result in assay [1] was “+ (A positive growth response was recorded for an OD600 exceeding 0.2 AU)”. In assay [2], the “Growth on substrate (in words)” value is recorded as “inability”. Also, in assay [4], the Growth on substrate entry was “+ (A positive growth response was recorded for an OD600 exceeding 0.2 AU)” and the “Chemoorganotrophic growth” value is “growth was observed”.

`NC(=O)CC[C@H](N)C(=O)O` [Glutamine]: the Growth on substrate entry in assay [1], in assay [2], in assay [3] and in assay [4] was “+ (A positive growth response was recorded for an OD600 exceeding 0.2 AU)” throughout. For the same molecule, in assay [4], the “Chemoorganotrophic growth” value is “growth was observed”.

On to `C=C(OP(=O)(O)O)C(=O)O` [Phosphoenol-pyruvate], for which the Growth on substrate entry in assay [1], in assay [2], in assay [3] and in assay [4] was “+ (A positive growth response was recorded for an OD600 exceeding 0.2 AU)” in each case. Also, the “Chemoorganotrophic growth” value in assay [4] is “growth was observed”.

Regarding `C[C@H](N)C(=O)O` [Alanine], the Growth on substrate result in assay [1], in assay [2], in assay [3] and in assay [4] was “+ (A positive growth response was recorded for an OD600 exceeding 0.2 AU)” in each case. Further, the “Chemoorganotrophic growth” value in assay [4] is reported as “growth was observed”.

As for `OCc1ccccc1O[C@@H]1O[C@H](CO)[C@@H](O)[C@H](O)[C@H]1O` [Salicin], the Growth on substrate result in assay [1], in assay [2], in assay [3] and in assay [4] was “+ (A positive growth response was recorded for an OD600 exceeding 0.2 AU)” in each case. In assay [4], the “Chemoorganotrophic growth” value was “growth was observed”.

With `OC[C@H]1O[C@@](CO)(O[C@H]2O[C@H](CO)[C@@H](O)[C@H](O)[C@H]2O)[C@@H](O)[C@@H]1O` [Sucrose], the Growth on substrate entry in assay [1], in assay [2], in assay [3] and in assay [4] was “+ (A positive growth response was recorded for an OD600 exceeding 0.2 AU)” throughout. For the same molecule, in assay [4], the “Chemoorganotrophic growth” value is “growth was observed”.

With `O=C(O)C1=C[C@@H](O)[C@@H](O)[C@H](O)C1` [Shikimic acid], the Growth on substrate result in assay [1], in assay [2], in assay [3] and in assay [4] was “+ (A positive growth response was recorded for an OD600 exceeding 0.2 AU)” throughout. In addition, the “Chemoorganotrophic growth” value in assay [4] is recorded as “growth was observed”.

Turning to `N[C@@H](CO)C(=O)O` [Serine], the Growth on substrate result in assay [1], in assay [2], in assay [3] and in assay [4] was “+ (A positive growth response was recorded for an OD600 exceeding 0.2 AU)” in each case. Besides, the “Chemoorganotrophic growth” value in assay [4] is “growth was observed”.

For the molecule `N[C@@H](CCC(=O)O)C(=O)O` [Glutamate], the Growth on substrate result in assay [1], in assay [2], in assay [3] and in assay [4] was “+ (A positive growth response was recorded for an OD600 exceeding 0.2 AU)” each time. In addition, the “Chemoorganotrophic growth” value in assay [4] was “growth was observed”.

Take `O=C(O)CCC(=O)C(=O)O` [Alpha-ketoglutarate]: the Growth on substrate result in assay [1], in assay [2], in assay [3] and in assay [4] was “+ (A positive growth response was recorded for an OD600 exceeding 0.2 AU)” throughout. For the same molecule, in assay [4], the “Chemoorganotrophic growth” value was “growth was observed”.

`O=C([O-])CCC(=O)[O-].[Na+].[Na+]` [Na-Succinate]: the Growth on substrate result in assay [1], in assay [2], in assay [3] and in assay [4] was “+ (A positive growth response was recorded for an OD600 exceeding 0.2 AU)” in each case. The “Chemoorganotrophic growth” value in assay [4] was “growth was observed”.

Regarding `O=C(O)/C=C\C(=O)O` [Maleic acid], the Growth on substrate entry in assay [1], in assay [3] and in assay [4] was “+ (A positive growth response was recorded for an OD600 exceeding 0.2 AU)” throughout. The “Growth on substrate (in words)” value in assay [2] was “inability”.

Consider `C[C@H](O)[C@H](O)[C@@H](O)[C@@H](O)C=O` [Rhamnose], for which the Growth on substrate result in assay [1] and in assay [3] was “+ (A positive growth response was recorded for an OD600 exceeding 0.2 AU)” in each case. Besides, the “Chemoorganotrophic growth” value in assay [4] was “inability”.

For the molecule `O=C[C@H](O)[C@@H](O)[C@H](O)CO` [Xylose], the Growth on substrate result in assay [1], in assay [2], in assay [3] and in assay [4] was “+ (A positive growth response was recorded for an OD600 exceeding 0.2 AU)” each time. The “Chemoorganotrophic growth” value in assay [4] is given as “growth was observed”.

For the molecule `O=C(O)[C@H](O)[C@@H](O)[C@H](O)[C@H](O)CO` [D-Gluconic Acid], the Growth on substrate result in assay [1] and in assay [3] was “+ (A positive growth response was recorded for an OD600 exceeding 0.2 AU)” in each case. In assay [4], the “Chemoorganotrophic growth” value is on record as “inability”.

Take `O=C(O)CC(O)(CC(=O)O)C(=O)O` [Na-Citrate]: the “Growth on substrate (in words)” value in assay [1] (C. autoethanogenum), in assay [2] and in assay [3] was “inability” throughout. Further, the Growth on substrate entry in assay [4] is listed as “+ (A positive growth response was recorded for an OD600 exceeding 0.2 AU)”. Besides, in assay [4], the “Chemoorganotrophic growth” value is “growth was observed”.

Consider `N=C(N)NCCC[C@H](N)C(=O)O` [Arginine], for which the Growth on substrate result in assay [1], in assay [3] and in assay [4] was “+ (A positive growth response was recorded for an OD600 exceeding 0.2 AU)” throughout. Also, in assay [2], the “Growth on substrate (in words)” value is recorded as “inability”. Further, the “Chemoorganotrophic growth” value in assay [4] is on record as “growth was observed”.
